Assay results as given in paper PMC6704710, “Preclinical evaluation of 3D185, a novel potent inhibitor of FGFR1/2/3 and CSF-1R, in FGFR-dependent and macrophage-dominant cancer models” (Journal of Experimental & Clinical Cancer Research : CR, 2019).

Legend:
Experiment in all cases: Eurofins kinase panel
Assay type in all cases: biochemical
Conditions in all cases: read-out: Inhibition rate (%)
PDHK4(h) = target: T1, PDHK4(h) (Homo sapiens, UniProt Q16654)
T1 construct: purchased Eurofins (KinaseProfiler)
T1 sequence (Q16654 whole entry): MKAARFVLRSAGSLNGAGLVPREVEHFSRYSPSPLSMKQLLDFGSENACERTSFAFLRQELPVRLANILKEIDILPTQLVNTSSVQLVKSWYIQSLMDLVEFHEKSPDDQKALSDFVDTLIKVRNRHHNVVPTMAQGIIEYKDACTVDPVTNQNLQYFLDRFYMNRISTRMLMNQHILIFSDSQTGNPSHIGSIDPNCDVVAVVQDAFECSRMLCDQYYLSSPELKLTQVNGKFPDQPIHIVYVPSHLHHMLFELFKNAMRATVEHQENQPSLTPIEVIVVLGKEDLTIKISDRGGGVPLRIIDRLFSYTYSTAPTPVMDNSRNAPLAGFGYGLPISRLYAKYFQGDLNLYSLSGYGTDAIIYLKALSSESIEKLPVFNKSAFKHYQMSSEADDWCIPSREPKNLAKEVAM

Aurora-C(h) = target: T2, Aurora-C(h) (Homo sapiens, UniProt Q9UQB9)
T2 construct: purchased Eurofins (KinaseProfiler)
T2 sequence (Q9UQB9 1-309): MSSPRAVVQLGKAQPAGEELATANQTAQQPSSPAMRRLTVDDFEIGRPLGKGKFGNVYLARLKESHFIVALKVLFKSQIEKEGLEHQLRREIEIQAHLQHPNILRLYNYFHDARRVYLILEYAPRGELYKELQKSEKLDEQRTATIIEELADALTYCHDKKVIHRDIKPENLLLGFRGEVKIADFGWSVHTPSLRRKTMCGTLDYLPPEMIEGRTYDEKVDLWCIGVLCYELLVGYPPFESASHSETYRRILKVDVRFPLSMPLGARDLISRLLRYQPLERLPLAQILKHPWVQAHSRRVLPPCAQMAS

PKR(h) = target: T3, PKR(h) (Homo sapiens, UniProt P19525)
T3 construct: purchased Eurofins (KinaseProfiler)
T3 sequence (P19525 whole entry): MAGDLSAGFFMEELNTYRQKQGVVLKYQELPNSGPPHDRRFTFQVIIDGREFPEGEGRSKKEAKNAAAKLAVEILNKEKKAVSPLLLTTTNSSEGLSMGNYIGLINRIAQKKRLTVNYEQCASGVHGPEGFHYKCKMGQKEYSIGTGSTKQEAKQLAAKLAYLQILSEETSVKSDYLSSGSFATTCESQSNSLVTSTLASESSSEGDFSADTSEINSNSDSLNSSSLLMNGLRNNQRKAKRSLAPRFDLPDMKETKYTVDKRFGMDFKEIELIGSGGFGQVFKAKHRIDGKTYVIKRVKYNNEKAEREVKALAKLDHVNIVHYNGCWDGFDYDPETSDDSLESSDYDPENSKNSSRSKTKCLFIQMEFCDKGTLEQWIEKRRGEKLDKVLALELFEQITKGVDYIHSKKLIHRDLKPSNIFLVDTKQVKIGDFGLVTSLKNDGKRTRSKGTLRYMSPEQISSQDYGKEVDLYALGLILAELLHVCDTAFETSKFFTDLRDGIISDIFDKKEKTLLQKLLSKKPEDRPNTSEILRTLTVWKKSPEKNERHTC

NEK11(h) = target: T4, NEK11(h) (Homo sapiens, UniProt Q8NG66)
T4 construct: purchased Eurofins (KinaseProfiler)
T4 sequence (Q8NG66 1-645): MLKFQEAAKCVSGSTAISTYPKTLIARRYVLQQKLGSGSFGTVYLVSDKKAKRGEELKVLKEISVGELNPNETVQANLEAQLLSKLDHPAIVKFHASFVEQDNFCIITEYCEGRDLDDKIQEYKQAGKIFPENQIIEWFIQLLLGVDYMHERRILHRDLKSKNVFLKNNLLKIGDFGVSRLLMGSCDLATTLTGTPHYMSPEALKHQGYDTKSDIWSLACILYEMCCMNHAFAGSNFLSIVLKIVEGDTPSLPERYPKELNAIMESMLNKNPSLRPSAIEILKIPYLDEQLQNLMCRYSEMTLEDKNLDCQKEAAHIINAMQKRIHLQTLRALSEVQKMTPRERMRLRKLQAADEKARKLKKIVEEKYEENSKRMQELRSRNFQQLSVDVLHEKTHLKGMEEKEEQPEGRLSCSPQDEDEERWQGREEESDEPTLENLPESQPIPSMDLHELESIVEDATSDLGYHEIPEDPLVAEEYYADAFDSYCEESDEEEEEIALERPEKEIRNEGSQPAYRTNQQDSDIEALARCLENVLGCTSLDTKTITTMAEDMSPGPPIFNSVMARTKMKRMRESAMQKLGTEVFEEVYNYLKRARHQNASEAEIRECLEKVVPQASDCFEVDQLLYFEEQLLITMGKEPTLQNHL

PKCμ(h) = target: T5, PKCμ(h) (Homo sapiens, UniProt Q15139)
T5 construct: purchased Eurofins (KinaseProfiler)
T5 sequence (Q15139 1-912): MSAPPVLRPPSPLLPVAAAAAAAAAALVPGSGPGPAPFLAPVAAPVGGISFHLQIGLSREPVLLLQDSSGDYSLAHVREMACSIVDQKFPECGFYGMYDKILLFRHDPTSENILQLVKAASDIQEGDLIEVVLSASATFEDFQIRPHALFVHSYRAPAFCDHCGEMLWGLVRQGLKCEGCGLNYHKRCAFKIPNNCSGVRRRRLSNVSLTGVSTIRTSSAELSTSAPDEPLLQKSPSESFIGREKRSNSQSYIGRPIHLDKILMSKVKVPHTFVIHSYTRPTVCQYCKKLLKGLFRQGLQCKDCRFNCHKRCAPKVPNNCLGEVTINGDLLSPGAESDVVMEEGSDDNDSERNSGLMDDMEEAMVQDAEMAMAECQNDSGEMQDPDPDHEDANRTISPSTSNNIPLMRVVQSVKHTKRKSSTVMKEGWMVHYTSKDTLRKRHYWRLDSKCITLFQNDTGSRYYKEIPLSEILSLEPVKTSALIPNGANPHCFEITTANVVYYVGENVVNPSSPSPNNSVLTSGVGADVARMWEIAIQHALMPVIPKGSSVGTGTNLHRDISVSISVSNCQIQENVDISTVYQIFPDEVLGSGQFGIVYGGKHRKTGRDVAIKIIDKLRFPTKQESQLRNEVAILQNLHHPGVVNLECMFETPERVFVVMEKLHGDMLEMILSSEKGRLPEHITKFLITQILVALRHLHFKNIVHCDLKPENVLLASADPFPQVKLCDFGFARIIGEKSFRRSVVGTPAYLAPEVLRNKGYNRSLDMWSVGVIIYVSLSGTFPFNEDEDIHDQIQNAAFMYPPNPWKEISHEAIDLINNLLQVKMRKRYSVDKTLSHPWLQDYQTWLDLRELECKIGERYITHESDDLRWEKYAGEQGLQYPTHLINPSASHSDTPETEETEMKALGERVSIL

B-Raf(V599E)(h) = target: T6, B-Raf(V599E)(h) (Homo sapiens, UniProt P15056, V600E)
T6 construct: purchased Eurofins (KinaseProfiler)
T6 sequence (P15056 417-766 V600E limits assumed): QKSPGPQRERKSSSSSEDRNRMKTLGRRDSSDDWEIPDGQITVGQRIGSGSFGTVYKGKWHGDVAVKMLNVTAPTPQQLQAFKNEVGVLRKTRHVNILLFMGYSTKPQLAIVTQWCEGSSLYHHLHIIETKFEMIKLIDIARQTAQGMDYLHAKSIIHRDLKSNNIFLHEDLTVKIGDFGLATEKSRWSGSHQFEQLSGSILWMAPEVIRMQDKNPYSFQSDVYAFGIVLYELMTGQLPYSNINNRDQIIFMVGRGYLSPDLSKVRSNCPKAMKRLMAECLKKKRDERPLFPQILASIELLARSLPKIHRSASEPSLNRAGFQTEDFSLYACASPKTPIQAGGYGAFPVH

RIPK2(h) = target: T7, RIPK2(h) (Homo sapiens, UniProt O43353)
T7 construct: purchased Eurofins (KinaseProfiler)
T7 sequence (O43353 whole entry): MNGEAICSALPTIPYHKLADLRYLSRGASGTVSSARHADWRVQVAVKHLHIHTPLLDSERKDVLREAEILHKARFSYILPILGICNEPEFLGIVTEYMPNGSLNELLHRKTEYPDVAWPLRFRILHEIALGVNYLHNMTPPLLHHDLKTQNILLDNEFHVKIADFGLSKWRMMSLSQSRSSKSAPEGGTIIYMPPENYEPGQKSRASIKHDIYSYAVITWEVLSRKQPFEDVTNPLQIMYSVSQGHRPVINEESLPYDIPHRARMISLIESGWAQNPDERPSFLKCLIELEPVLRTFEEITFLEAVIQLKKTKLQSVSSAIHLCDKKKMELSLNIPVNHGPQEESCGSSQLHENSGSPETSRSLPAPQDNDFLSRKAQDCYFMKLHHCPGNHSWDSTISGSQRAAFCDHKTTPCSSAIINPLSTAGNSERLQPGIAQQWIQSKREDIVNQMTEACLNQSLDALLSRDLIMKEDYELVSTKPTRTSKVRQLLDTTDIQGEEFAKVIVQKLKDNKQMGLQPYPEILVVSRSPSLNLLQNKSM

## COc1cc(OC)c(Cl)c(-c2ccc3c(NC(=O)c4ccc(N5CCNC(C)(C)C5)cc4)n[nH]c3n2)c1Cl [3D185]
PDHK4(h); 10 nM
  inhibition at 0.01 µM: -2%
PDHK4(h); 100 nM
  inhibition at 0.1 µM: -2%
PDHK4(h); 1000 nM
  inhibition at 1 µM: 0%
Aurora-C(h); 10 nM
  inhibition at 0.01 µM: -15%
Aurora-C(h); 100 nM
  inhibition at 0.1 µM: 6%
Aurora-C(h); 1000 nM
  inhibition at 1 µM: -2%
PKR(h); 10 nM
  inhibition at 0.01 µM: -4%
PKR(h); 100 nM
  inhibition at 0.1 µM: -3%
PKR(h); 1000 nM
  inhibition at 1 µM: 0%
NEK11(h); 10 nM
  inhibition at 0.01 µM: 5%
NEK11(h); 100 nM
  inhibition at 0.1 µM: 15%
NEK11(h); 1000 nM
  inhibition at 1 µM: 37%
PKCμ(h); 10 nM
  inhibition at 0.01 µM: -2%
PKCμ(h); 100 nM
  inhibition at 0.1 µM: 2%
PKCμ(h); 1000 nM
  inhibition at 1 µM: 11%
B-Raf(V599E)(h); 10 nM
  inhibition at 0.01 µM: -1%
B-Raf(V599E)(h); 100 nM
  inhibition at 0.1 µM: -6%
B-Raf(V599E)(h); 1000 nM
  inhibition at 1 µM: 7%
RIPK2(h); 10 nM
  inhibition at 0.01 µM: 2%
RIPK2(h); 100 nM
  inhibition at 0.1 µM: 6%
RIPK2(h); 1000 nM
  inhibition at 1 µM: 3%
